Earlier results, collected in US20160213782A1, “POLYURETHANES AS ORAL DRUG DELIVERY PLATFORM” (Universiteit Gent, priority 2013, published 2016).
Counter-ions that a name gives are not always drawn.

Details: for aqueous solubility in 100 ml at 25° C.: in 100 ml water; for drug solubility: as given in legend of FIG. 1

aqueous solubility in 100 ml at 25° C. [g]	SMILES	drug solubility [mg/mL]
33	Cn1c(=O)c2c(ncn2CC(O)CO)n(C)c1=O (centres unmarked) [Dyph, 7-(2,3-dihydroxypropyl)-theophylline]	–
1.4	CC(=O)Nc1ccc(O)cc1 [acetaminophen]	–
–	COCCc1ccc(OCC(O)CNC(C)C)cc1 (centres unmarked) [MPT, Metoprolol tartrate]	> 1000

SMILES	aqueous solubility in 100 ml at 25° C. [g]	drug solubility [mg/mL]
Cn1c(=O)c2[nH]cnc2n(C)c1=O [TH, Theophylline]	0.7	10
